# According to US20060132952A1, “Enhanced data storage and retrieval devices and systems and methods for utilizing same” (priority 2002, published 2006):
# Key:
# [1] = Sucrose solubility in conditioned (sodium lamp) vs control water at room temperature (22° C.); type: physicochemical
# Method: Beaker “II” was placed under another sodium lamp 12 as like Beaker “KK”; and Beaker “JJ” was placed in the same incubator as Beaker “LL”. […] Specifically, Beaker “GG” was placed under another sodium lamp 12 as like Beaker “KK” and Beaker “II”; and Becker “HH” was placed into the same incubator as Beaker “LL” and “II”.
# [2] = Phenyl salicylate solubility in conditioned (neon lamp) vs unconditioned acetone at room temperature (22° C.); type: physicochemical; settings: equilibrated about 20 hours
# Method: Acetone (about 1 ml) was pipetted into small glass test tubes and stoppers placed in the tube. Tubes were placed under a neon lam; (about 8 m/cm^2) in an otherwise dark room for about 1-5 hours at about 28° C. ambient temperature. Tubes were also placed simultaneously in an incubator at 28° C. for about 1.5 hours.
# Phenyl solicylate (about 3.50 grams) was added to each tube leaving a layer undissolved on the bottom of each tube. The solutions were allowed to equilibrate (about 20 hours). Solution was filtered over the crystals and 0.500 ml pipetted into fresh tubes. After the acetone evaporated, dry weights of phenyl solicylate per ml dissolved in conditioned and unconditioned acetone were determined.
"Weight (dry sucrose weight per 100 ml solution) ([1]; GG, water under sodium lamp one hour, 23.5° C.)","Weight (dry sucrose weight per 100 ml solution) ([1]; HH, control water 1 hour, 23° C.)","Weight (dry sucrose weight per 100 ml solution) ([1]; II, water under sodium lamp two hours, 23.5° C.)","Weight (dry sucrose weight per 100 ml solution) ([1]; JJ, control water 2 hours, 23.5° C.)","Weight (dry sucrose weight per 100 ml solution) ([1]; KK, water under Na lamp three hours, 23.5° C.)","Weight (dry sucrose weight per 100 ml solution) ([1]; LL, control water 3 hours, 23.5° C.)",more sucrose dissolved by conditioned water than by untreated control water ([1]; two hours exposure of water to sodium lamp),Average amount dissolved in unconditioned acetone ([2]; acetone kept in incubator at 28° C.),Average amount dissolved in conditioned acetone ([2]; acetone under neon lamp),Structure (SMILES)
49 g/100 ml,49 g/100 ml,47 g/100 ml,44 g/100 ml,46 g/100 ml,49 g/100 ml,about 7%,,,OC[C@H]1O[C@@](CO)(O[C@H]2O[C@H](CO)[C@@H](O)[C@H](O)[C@H]2O)[C@@H](O)[C@@H]1O [Sucrose]
,,,,,,,0.68 g/mL,0.78 g/mL,O=C(Oc1ccccc1)c1ccccc1O [phenyl salicylate]
